{
  "source": "patent US20040062802A1",
  "about": "“Maximizing effectiveness of substances used to improve health and well being” (priority 1998, published 2004)",
  "origin": "cited, not measured here",
  "key": {"HIV": {"test_system": "HIV", "settings": "200 mg AZT orally every 4 hours for 7 day periods alternating with ddC 0.03 mg/kg orally every 4 hours for 7 day periods; cited from earlier work"}, "bone marrow cells": {"test_system": "bone marrow cells", "settings": "mouse, in vivo; cited from earlier work"}, "[1]": {"settings": "cited from earlier work"}, "[2]": {"test_system": "male patients with clinical of BPH", "settings": "cited from earlier work; for I-PSS Endpoint / Qmax Endpoint: 24 weeks; for I-PSS Endpoint / Qmax Endpoint / I-PSS Baseline / Qmax Baseline: mean; for I-PSS Baseline / Qmax Baseline: after 2 week placebo run-in"}, "[3]": {"settings": "mean, N = 24, cited from earlier work; for AUC0-24 h: 1 mg daily 10 days then 2 mg daily 5 days"}, "mouse model": {"test_system": "mouse model", "settings": "drug received at the beginning of the sleep phase; cited from earlier work"}, "[4]": {"settings": "cited from earlier work", "remark": "listed apart in the source"}, "[5]": {"settings": "800 mg group versus 400 mg group"}},
  "note": "Read-outs that look alike come from different tables or passages of the source.",
  "data": [
    {"compound": "Cc1cn([C@H]2C[C@H](N=[N+]=[N-])[C@@H](CO)O2)c(=O)[nH]c1=O", "note": "[AZT]", "values": [
      {"measurement": "outcome of alternating regimen", "setting": "HIV", "value": "promising treatment regimen"},
      {"measurement": "toxicity (peripheral blood parameters, proportion of bone marrow cells arrested at the S-phase gate)", "setting": "bone marrow cells", "value": "significantly less toxic"},
      {"measurement": "duration of the effect of AZT", "setting": "[1]; 400 mg group versus 800 mg group", "value": "significantly longer"},
      {"measurement": "AZT withdrawn or dose reduced", "setting": "[1]; [5]", "value": "reduced more frequently"},
      {"measurement": "adverse reaction", "setting": "[1]; [5]", "value": "more frequently observed"}
    ]},
    {"compound": "COc1cc2nc(N3CCN(C(=O)C4COc5ccccc5O4)CC3)nc(N)c2cc1OC", "note": "(stereo not shown) [Doxazosin]", "values": [
      {"measurement": "clinical efficacy versus placebo", "setting": "[2]; at 6 weeks and endpoint", "value": "significantly differed from placebo"},
      {"measurement": "I-PSS Endpoint", "setting": "[2]; evening (8 pm) dosing", "value": 11.7},
      {"measurement": "Qmax Endpoint", "setting": "[2]; evening (8 pm) dosing", "value": 12.30, "unit": "mL/s"},
      {"measurement": "I-PSS Mean Change", "setting": "[2]; evening (8 pm) dosing", "value": "−6.7"},
      {"measurement": "I-PSS Responders", "setting": "[2]; evening (8 pm) dosing", "value": 62.6},
      {"measurement": "Qmax Mean Change", "setting": "[2]; evening (8 pm) dosing", "value": 1.94, "unit": "mL/s"},
      {"measurement": "Qmax Responders", "setting": "[2]; evening (8 pm) dosing", "value": 28.4},
      {"measurement": "I-PSS Baseline", "setting": "[2]; evening (8 pm) group", "value": 18.2},
      {"measurement": "Qmax Baseline", "setting": "[2]; evening (8 pm) group", "value": 10.49, "unit": "mL/s"},
      {"measurement": "I-PSS Endpoint", "setting": "[2]; morning (8 am) dosing", "value": 11.0},
      {"measurement": "Qmax Endpoint", "setting": "[2]; morning (8 am) dosing", "value": 11.84, "unit": "mL/s"},
      {"measurement": "I-PSS Mean Change", "setting": "[2]; morning (8 am) dosing", "value": "−6.9"},
      {"measurement": "I-PSS Responders", "setting": "[2]; morning (8 am) dosing", "value": 57.4},
      {"measurement": "Qmax Mean Change", "setting": "[2]; morning (8 am) dosing", "value": 1.51, "unit": "mL/s"},
      {"measurement": "Qmax Responders", "setting": "[2]; morning (8 am) dosing", "value": 29.7},
      {"measurement": "I-PSS Baseline", "setting": "[2]; morning (8 am) group", "value": 18.5},
      {"measurement": "Qmax Baseline", "setting": "[2]; morning (8 am) group", "value": 10.17, "unit": "mL/s"},
      {"measurement": "AUC0-24 h", "setting": "[3]; evening dosing (8 pm)", "value": 253.66, "unit": "ng·h/mL"},
      {"measurement": "Cmax", "setting": "[3]; evening dosing (8 pm)", "value": 15.76, "unit": "ng/mL"},
      {"measurement": "T1/2", "setting": "[3]; evening dosing (8 pm)", "value": 18.77, "unit": "h"},
      {"measurement": "Tmax", "setting": "[3]; evening dosing (8 pm)", "value": 5.60, "unit": "h"},
      {"measurement": "AUC0-24 h", "setting": "[3]; morning dosing (8 am)", "value": 227.90, "unit": "ng·h/mL"},
      {"measurement": "Cmax", "setting": "[3]; morning dosing (8 am)", "value": 16.98, "unit": "ng/mL"},
      {"measurement": "T1/2", "setting": "[3]; morning dosing (8 am)", "value": 19.52, "unit": "h"},
      {"measurement": "Tmax", "setting": "[3]; morning dosing (8 am)", "value": 3.46, "unit": "h"}
    ]},
    {"compound": "N.N.O=C([O-])C1(C(=O)[O-])CCC1.[Pt+2]", "note": "[carboplatin, Carboplatin]", "values": [
      {"measurement": "marrow toxicity", "setting": "mouse model", "value": "lowest marrow toxicity"},
      {"measurement": "mean survival time", "setting": "mouse model", "value": "longest mean survival time"}
    ]},
    {"compound": "COC(=O)C(c1ccccc1)C1CCCCN1", "note": "(stereo not shown) [methylphenidate]", "values": [
      {"measurement": "plasma profile", "setting": "[4]; ADD, conventional 10 mg at 7 am and 10 mg at 12 pm, FIG. I solid line", "value": "high dosages of the drug would be present in the body throughout the afternoon and early evening"},
      {"measurement": "plasma profile", "setting": "[4]; narcolepsy, conventional 20 mg at 7 am, 10 mg at 12 pm and 10 mg at 5 pm, FIG. II solid line", "value": "lower dosages of the drug are present in the patient during the morning hours"}
    ]}
  ]
}
